Experimental data published in the supplement of paper PMC6045584.
± gives the standard deviation of the averaged measurements.

Assays:
FLUOROURACIL = compound: O=c1[nH]cc(F)c(=O)[nH]1 [FLUOROURACIL]; assay: surviving fraction relative to DMSO-only wells; higher = less growth inhibition; conditions: exposure time: 5 days
Procedure, shortened: (§1)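 Surviving fraction is CellTiter-Glo luminescence divided by the median of wells given DMSO only. For this, log-phase tumour cell lines went into 384-well plates at 250–500 cells per well and, 24 hours later, into five days of continuous inhibitor exposure at 0.5, 1, 5, 10, 50, 100, 500 and 1000 nM. Lines were screened three times and retained only if replicate Pearson r >0.7 and median Z' >0.3.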

RESVERATROL = compound: Oc1ccc(/C=C/c2cc(O)cc(O)c2)cc1 [RESVERATROL]; assay: as above; conditions: exposure time: 5 days
Procedure, shortened: as §1

| Test System | surviving fraction (FLUOROURACIL; 0.5 nM) | surviving fraction (FLUOROURACIL; 1 nM) | surviving fraction (FLUOROURACIL; 5 nM) | surviving fraction (FLUOROURACIL; 10 nM) | surviving fraction (FLUOROURACIL; 50 nM) | surviving fraction (FLUOROURACIL; 100 nM) | surviving fraction (FLUOROURACIL; 500 nM) | surviving fraction (FLUOROURACIL; 1000 nM) | surviving fraction (RESVERATROL; 0.5 nM) | surviving fraction (RESVERATROL; 1 nM) | surviving fraction (RESVERATROL; 5 nM) | surviving fraction (RESVERATROL; 10 nM) | surviving fraction (RESVERATROL; 50 nM) | surviving fraction (RESVERATROL; 100 nM) | surviving fraction (RESVERATROL; 500 nM) | surviving fraction (RESVERATROL; 1000 nM) |
| --- | --- | --- | --- | --- | --- | --- | --- | --- | --- | --- | --- | --- | --- | --- | --- | --- |
| T47D BREAST | 1.02 ± 0.03 | 1.03 ± 0.03 | 1 ± 0.0033 | 1.01 ± 0.03 | 1.02 ± 0.041 | 0.95 ± 0.04 | 0.855 ± 0.02 | 0.761 ± 0.028 | 1.06 ± 0.011 | 1.1 ± 0.036 | 1.11 ± 0.049 | 1.11 ± 0.017 | 0.997 ± 0.15 | 1.08 ± 0.08 | 1.02 ± 0.15 | 1.08 ± 0.16 |
| CHLA90 AUTONOMIC GANGLIA | 0.951 ± 0.021 | 0.946 ± 0.043 | 0.939 ± 0.059 | 1 ± 0.13 | 1.07 ± 0.054 | 1.04 ± 0.084 | 0.91 ± 0.12 | 0.886 ± 0.09 | 1.01 ± 0.075 | 0.996 ± 0.049 | 0.984 ± 0.024 | 1.03 ± 0.033 | 0.962 ± 0.056 | 1.07 ± 0.043 | 1.07 ± 0.064 | 1.08 ± 0.053 |
| SCC47 HEADNECK | 1.12 ± 0.088 | 1.14 ± 0.026 | 1.22 ± 0.15 | 1.1 ± 0.043 | 1.02 ± 0.048 | 0.945 ± 0.051 | 0.854 ± 0.047 | 0.956 ± 0.057 | 1.09 ± 0.13 | 1.11 ± 0.096 | 1.09 ± 0.066 | 1.21 ± 0.038 | 1.21 ± 0.072 | 1.17 ± 0.051 | 1.09 ± 0.023 | 1.2 ± 0.057 |
| CASKI CERVIX | 0.957 ± 0.037 | 0.928 ± 0.045 | 0.935 ± 0.04 | 0.941 ± 0.068 | 0.92 ± 0.046 | 0.916 ± 0.066 | 0.801 ± 0.045 | 0.555 ± 0.033 | 0.938 ± 0.09 | 0.926 ± 0.033 | 0.959 ± 0.045 | 0.963 ± 0.049 | 1.03 ± 0.036 | 1.05 ± 0.099 | 0.993 ± 0.023 | 1.06 ± 0.041 |
| HU09 BONE | 1.06 ± 0.13 | 0.966 ± 0.045 | 1.1 ± 0.022 | 1.1 ± 0.038 | 0.985 ± 0.092 | 0.941 ± 0.051 | 0.693 ± 0.091 | 0.604 ± 0.031 | 0.972 ± 0.079 | 1.08 ± 0.1 | 1.13 ± 0.1 | 1.07 ± 0.077 | 1.11 ± 0.15 | 1.1 ± 0.079 | 1.05 ± 0.12 | 1.06 ± 0.038 |
| SAOS2 BONE | 1.04 ± 0.073 | 1.05 ± 0.037 | 1.11 ± 0.046 | 1.09 ± 0.02 | 0.826 ± 0.096 | 0.8 ± 0.17 | 0.758 ± 0.11 | 0.598 ± 0.2 | 1.16 ± 0.15 | 1.24 ± 0.047 | 1.24 ± 0.091 | 1.23 ± 0.061 | 1.26 ± 0.11 | 1.22 ± 0.089 | 1.24 ± 0.084 | 1.18 ± 0.072 |
| SUM149 BREAST | 0.934 ± 0.029 | 0.969 ± 0.064 | 0.908 ± 0.028 | 0.909 ± 0.038 | 0.872 ± 0.071 | 0.902 ± 0.063 | 0.736 ± 0.069 | 0.597 ± 0.057 | 0.958 ± 0.048 | 1.02 ± 0.07 | 1.04 ± 0.082 | 0.958 ± 0.013 | 1.07 ± 0.048 | 0.989 ± 0.062 | 1.09 ± 0.034 | 1.09 ± 0.1 |
| SYO1 SYNOVIAL | 1.02 ± 0.012 | 0.989 ± 0.01 | 0.962 ± 0.029 | 0.974 ± 0.024 | 0.894 ± 0.016 | 0.872 ± 0.034 | 0.763 ± 0.034 | 0.616 ± 0.025 | 0.975 ± 0.062 | 0.996 ± 0.027 | 0.996 ± 0.04 | 0.991 ± 0.044 | 0.974 ± 0.045 | 1.01 ± 0.038 | 0.987 ± 0.039 | 1.01 ± 0.051 |
| DU4475 BREAST | 0.972 ± 0.062 | 1.06 ± 0.068 | 0.934 ± 0.12 | 1.13 ± 0.12 | 1.01 ± 0.16 | 0.987 ± 0.27 | 1.06 ± 0.081 | 0.939 ± 0.1 | 1 ± 0.13 | 0.973 ± 0.051 | 0.967 ± 0.13 | 0.964 ± 0.074 | 0.985 ± 0.1 | 1.05 ± 0.17 | 1.02 ± 0.047 | 1.1 ± 0.22 |
| JIMT1 BREAST | 0.932 ± 0.0056 | 0.899 ± 0.021 | 0.979 ± 0.033 | 0.9068 ± 0.0066 | 0.94 ± 0.038 | 0.884 ± 0.062 | 0.948 ± 0.066 | 0.866 ± 0.076 | 1.03 ± 0.038 | 1.04 ± 0.042 | 1.05 ± 0.047 | 1.01 ± 0.029 | 1.01 ± 0.016 | 1.05 ± 0.027 | 1 ± 0.035 | 1.05 ± 0.021 |
| ASKA SYNOVIAL | 1.1 ± 0.072 | 1.06 ± 0.081 | 1.17 ± 0.021 | 1.04 ± 0.024 | 1.01 ± 0.05 | 0.937 ± 0.066 | 0.919 ± 0.068 | 0.775 ± 0.042 | 1.12 ± 0.019 | 1.15 ± 0.089 | 1.22 ± 0.077 | 1.25 ± 0.058 | 1.12 ± 0.13 | 1.22 ± 0.051 | 1.1 ± 0.072 | 1.13 ± 0.1 |
| H23 LUNG | 1.06 ± 0.062 | 1.02 ± 0.034 | 1.05 ± 0.026 | 1.04 ± 0.036 | 1.1 ± 0.061 | 1.02 ± 0.046 | 1.04 ± 0.044 | 0.659 ± 0.029 | 0.99 ± 0.019 | 1.06 ± 0.051 | 1.02 ± 0.071 | 1.05 ± 0.023 | 0.994 ± 0.044 | 1.07 ± 0.036 | 1 ± 0.034 | 1.11 ± 0.096 |
| SG27 HEADNECK | 1.07 ± 0.029 | 1.08 ± 0.13 | 0.991 ± 0.016 | 1.08 ± 0.053 | 1.08 ± 0.087 | 1 ± 0.13 | 1.137 ± 0.0093 | 1.01 ± 0.043 | 1.15 ± 0.14 | 1.02 ± 0.069 | 1.03 ± 0.067 | 1.06 ± 0.1 | 1.04 ± 0.083 | 1.17 ± 0.059 | 1.15 ± 0.085 | 1.08 ± 0.12 |
| BT549 BREAST | 1.07 ± 0.13 | 1.06 ± 0.024 | 1.05 ± 0.21 | 0.95 ± 0.12 | 0.8 ± 0.06 | 0.843 ± 0.15 | 0.872 ± 0.084 | 0.585 ± 0.071 | 0.97 ± 0.081 | 1.1 ± 0.17 | 0.942 ± 0.14 | 1.09 ± 0.06 | 1.16 ± 0.038 | 1.01 ± 0.14 | 1.15 ± 0.047 | 1.12 ± 0.028 |
| SG43 HEADNECK | 1.07 ± 0.14 | 0.991 ± 0.21 | 0.979 ± 0.25 | 1.06 ± 0.3 | 1.1 ± 0.22 | 0.905 ± 0.073 | 0.977 ± 0.088 | 0.879 ± 0.054 | 0.856 ± 0.14 | 1.06 ± 0.048 | 0.867 ± 0.23 | 0.914 ± 0.025 | 0.822 ± 0.13 | 0.794 ± 0.19 | 0.848 ± 0.14 | 0.898 ± 0.22 |
| MDAMB157 BREAST | 0.981 ± 0.019 | 0.969 ± 0.12 | 1.05 ± 0.055 | 1.05 ± 0.1 | 1.02 ± 0.03 | 0.978 ± 0.017 | 0.943 ± 0.044 | 0.836 ± 0.059 | 1.01 ± 0.061 | 1.06 ± 0.048 | 0.972 ± 0.057 | 1.1 ± 0.038 | 0.992 ± 0.025 | 1.07 ± 0.03 | 0.972 ± 0.095 | 1 ± 0.1 |
| SJSA1 BONE | 1.19 ± 0.1 | 1.6 ± 0.092 | 1.59 ± 0.11 | 1.52 ± 0.2 | 0.135 ± 0.008 | 0.823 ± 0.018 | 1.44 ± 0.026 | 0.116 ± 0.001 | 1.62 ± 0.083 | 1.74 ± 0.059 | 1.65 ± 0.053 | 1.79 ± 0.04 | 1.67 ± 0.13 | 1.74 ± 0.092 | 1.61 ± 0.13 | 1.78 ± 0.078 |
| CAL120 BREAST | 0.986 ± 0.039 | 0.991 ± 0.041 | 0.989 ± 0.034 | 0.979 ± 0.069 | 0.967 ± 0.015 | 0.938 ± 0.032 | 0.983 ± 0.043 | 0.803 ± 0.024 | 0.966 ± 0.049 | 1.01 ± 0.059 | 0.975 ± 0.058 | 0.983 ± 0.069 | 1.02 ± 0.07 | 0.998 ± 0.043 | 1.04 ± 0.017 | 1.04 ± 0.056 |
| SKBR3 BREAST | 0.988 ± 0.088 | 0.894 ± 0.085 | 1.03 ± 0.074 | 0.986 ± 0.015 | 0.792 ± 0.059 | 0.741 ± 0.11 | 0.901 ± 0.11 | 0.787 ± 0.018 | 0.966 ± 0.15 | 1.06 ± 0.048 | 1.1 ± 0.1 | 1.07 ± 0.076 | 1.08 ± 0.053 | 1.09 ± 0.028 | 1.11 ± 0.12 | 1.04 ± 0.055 |
| A549 LUNG | 1.093 ± 0.0015 | 1.055 ± 0.007 | 1.051 ± 0.001 | 1.04 ± 0.032 | 1.11 ± 0.019 | 1.029 ± 0.0045 | 1.05 ± 0.025 | 0.554 ± 0.046 | 1.03 ± 0.011 | 1.07 ± 0.043 | 1.05 ± 0.024 | 1.05 ± 0.026 | 1.04 ± 0.021 | 1.09 ± 0.06 | 1.07 ± 0.044 | 1.11 ± 0.062 |
| SCC90 HEADNECK | 0.968 ± 0.033 | 0.982 ± 0.096 | 1 ± 0.039 | 1.012 ± 0.009 | 0.928 ± 0.087 | 0.86 ± 0.1 | 0.908 ± 0.064 | 0.95 ± 0.08 | 1.01 ± 0.012 | 1.045 ± 0.0079 | 1.12 ± 0.15 | 1.08 ± 0.021 | 1.03 ± 0.061 | 1.05 ± 0.064 | 1.05 ± 0.019 | 0.956 ± 0.076 |
